In assay [1] the target is T1, SARS-CoV-2 PLpro (nsp3 1564–1878) (Severe acute respiratory syndrome coronavirus 2, UniProt P0DTD1). Description: biochemical. Set-up: FRET-quenched peptide (Pro3) cleavage by PLpro, 10 min pre-incubation, slope over 20 min, normalised to no-compound control. The following applies: low concentration screen, read-out: % of control remaining.
The target of assay [2] is T1, SARS-CoV-2 PLpro (nsp3 1564–1878). In words: biochemical. Details: FRET-quenched peptide (Pro3) cleavage by PLpro, 10 min pre-incubation, slope over 20 min, normalised to no-compound control. To be noted: high concentration screen, read-out: % of control remaining.

Where a name gives a salt, the structure may show the parent alone. Read-outs that look alike come from different tables or passages of the source. Where a SMILES comes first, the peptide text is derived from it.

The source of these data is publication PMC8286840, “Identifying SARS-CoV-2 antiviral compounds by screening for small molecule inhibitors of Nsp3 papain-like protease” (Biochemical Journal, 2021).

Take `O=C(O)c1cc(N(Cc2ccccc2O)Cc2ccccc2O)ccc1O` [Lavendustin B]: the remaining activity at 1.25 µM in assay [1] (Well no.=3807) was 95.8%. Besides, in assay [2] (Well no.=3807), the remaining activity at 3.75 µM turned out to be 98%.
For `Cc1oncc1C(=O)Nc1ccc(C(F)(F)F)cc1` [Leflunomide], the values for the remaining activity at 1.25 µM in assay [1] (Well no.=787) and in assay [1] (Well no.=2268) were 104% and 96.5%, respectively. Also, the figures for the remaining activity at 3.75 µM in assay [2] (Well no.=787) and in assay [2] (Well no.=2268) were 105% and 104%, respectively.
Consider `Nc1cccc2c1CN(C1CCC(=O)NC1=O)C2=O` (stereo not drawn) [Lenalidomide (Revlimid)], for which, in assay [1] (Well no.=4838), the remaining activity at 1.25 µM was 97.7%. In assay [2] (Well no.=4838), the remaining activity at 3.75 µM worked out at 97.8%.
For the molecule `O=C(O)CSc1nnc(Br)n1-c1ccc(C2CC2)c2ccccc12` [Lesinurad], the remaining activity at 1.25 µM in assay [1] (Well no.=8158) amounted to 102%. Moreover, the remaining activity at 3.75 µM in assay [2] (Well no.=8158) was determined as 104%.
For `N#Cc1ccc(C(c2ccc(C#N)cc2)n2cncn2)cc1` [Letrozole], the remaining activity at 1.25 µM in assay [1] (Well no.=1822) turned out to be 97.8%. For the same molecule, in assay [2] (Well no.=1822), the remaining activity at 3.75 µM came to 98.2%.
For the molecule `CC1=CC(=O)C2=C(C)CC[C@@H]3[C@H](OC(=O)[C@H]3C)[C@@H]12` [Leucomisine], the remaining activity at 1.25 µM in assay [1] (Well no.=3248) is 94.5%. Moreover, the remaining activity at 3.75 µM in assay [2] (Well no.=3248) worked out at 96.8%.
`Nc1nc(=O)c2c([nH]1)NCC(CNc1ccc(C(=O)N[C@@H](CCC(=O)O)C(=O)O)cc1)N2C=O` (stereo partly drawn) [Leucovorin Calcium]: the remaining activity at 1.25 µM in assay [1] (Well no.=4757) amounted to 103%. Moreover, the remaining activity at 3.75 µM in assay [2] (Well no.=4757) was determined as 107%.
In the case of `CC(C)C[C@H](N)C(=O)N[C@@H](Cc1ccccc1)C(=O)O` [Leucyl-phenylalanine] (H-Leu-Phe-OH), the results for the remaining activity at 1.25 µM in assay [1] (Well no.=6291) and in assay [1] (Well no.=8754) were 104% and 87.2%, respectively. Besides, the remaining activity at 3.75 µM in assay [2] (Well no.=6291) worked out at 102%; in assay [2] (Well no.=8754), 87.4%.
`CCCCCCCC[C@H](O)/C=C/C=C\C=C\[C@H](O)CCCC(=O)O` [Leukotriene B3]: the remaining activity at 1.25 µM in assay [1] (Well no.=4421) is 102%. The remaining activity at 3.75 µM in assay [2] (Well no.=4421) amounted to 101%.
In the case of `CCCCC/C=C\C[C@@H](O)/C=C/C=C/C=C\[C@@H](O)CCCC(=O)O` [Leukotriene B4], the remaining activity at 1.25 µM in assay [1] (Well no.=4423) is 101%. For the same molecule, in assay [2] (Well no.=4423), the remaining activity at 3.75 µM came to 97.4%.
Regarding `CCCCC/C=C\C\C=C/C=C/C=C/[C@@H](SC[C@H](NC(=O)CC[C@H](N)C(=O)O)C(=O)NCC(=O)O)[C@@H](O)CCCC(=O)O` [Leukotriene C4], the remaining activity at 1.25 µM in assay [1] (Well no.=4429) was determined as 102%. For the same molecule, the remaining activity at 3.75 µM in assay [2] (Well no.=4429) was 101%.
For `CCCCC/C=C\C\C=C/C=C/C=C/[C@@H](SC[C@H](N)C(=O)NCC(=O)O)[C@@H](O)CCCC(=O)O` [Leukotriene D4], the remaining activity at 1.25 µM in assay [1] (Well no.=4431) was determined as 100%. The remaining activity at 3.75 µM in assay [2] (Well no.=4431) amounted to 98.6%.
In the case of `CCCCC/C=C\C\C=C/C=C/C=C/[C@@H](SC[C@H](N)C(=O)O)[C@@H](O)CCCC(=O)O` [Leukotriene E4], the remaining activity at 1.25 µM in assay [1] (Well no.=4433) came to 99.2%. In assay [2] (Well no.=4433), the remaining activity at 3.75 µM worked out at 99.5%.
Consider `CC(=O)N[C@@H](CC(C)C)C(=O)N[C@@H](CC(C)C)C(=O)N[C@H](C=O)CCCN=C(N)N` [Leupeptin Hemisulfate], for which, in assay [1] (Well no.=8716), the remaining activity at 1.25 µM came to 92%. Besides, the remaining activity at 3.75 µM in assay [2] (Well no.=8716) worked out at 91%.
With `CCNC(=O)[C@@H]1CCCN1C(=O)[C@H](CCCNC(=N)N)NC(=O)[C@H](CC(C)C)NC(=O)[C@@H](CC(C)C)NC(=O)[C@H](Cc1ccc(O)cc1)NC(=O)[C@H](CO)NC(=O)[C@H](Cc1c[nH]c2ccccc12)NC(=O)[C@H](Cc1c[nH]cn1)NC(=O)[C@@H]1CCC(=O)N1` [Leuprolide (Acetate)], the remaining activity at 1.25 µM in assay [1] (Well no.=6469) was determined as 104%. In assay [2] (Well no.=6469), the remaining activity at 3.75 µM was determined as 104%.
Turning to `C=CCN1CC[C@]23CCCC[C@H]2[C@H]1Cc1ccc(O)cc13` [Levallorphan tartrate], the remaining activity at 1.25 µM in assay [1] (Well no.=1012) was 99.1%. Moreover, the remaining activity at 3.75 µM in assay [2] (Well no.=1012) amounted to 99.9%.
Regarding `C=CCN1CC[C@]23CCCC[C@H]2[C@H]1Cc1ccc(O)cc13` [Levallorphan], the remaining activity at 1.25 µM in assay [1] (Well no.=1702) was determined as 106%. Besides, in assay [2] (Well no.=1702), the remaining activity at 3.75 µM was determined as 103%.
Regarding `c1ccc([C@H]2CN3CCSC3=N2)cc1` [Levamisole], the remaining activity at 1.25 µM in assay [1] (Well no.=2260) came out at 97.8%. Also, in assay [2] (Well no.=2260), the remaining activity at 3.75 µM is 94.2%.
As to `CC[C@@H](C(N)=O)N1CCCC1=O` [Levetiracetam], in assay [1] (Well no.=1820), the remaining activity at 1.25 µM was 96.8%. Besides, the remaining activity at 3.75 µM in assay [2] (Well no.=1820) was determined as 94.4%.
With `CC(C)NC[C@H](O)COc1ccc(CCOCC2CC2)cc1` [Levobetaxolol (hydrochloride)], in assay [1] (Well no.=6429), the remaining activity at 1.25 µM amounted to 91.4%. Further, the remaining activity at 3.75 µM in assay [2] (Well no.=6429) amounted to 90.9%.
For the molecule `CCCCN1CCCC[C@H]1C(=O)Nc1c(C)cccc1C` [Levobupivacaine hydrochloride], the remaining activity at 1.25 µM in assay [1] (Well no.=6043) worked out at 98.8%. In addition, the remaining activity at 3.75 µM in assay [2] (Well no.=6043) came out at 105%.
For the molecule `C[C@@H]1CN([C@H]2CC[C@](C#N)(c3ccc(F)cc3)CC2)CC[C@]1(C(=O)O)c1ccccc1` [Levocabastine.HCl], the remaining activity at 1.25 µM in assay [1] (Well no.=2058) came to 97.6%. Also, the remaining activity at 3.75 µM in assay [2] (Well no.=2058) worked out at 99.2%.
For the molecule `N[C@@H](Cc1ccc(O)c(O)c1)C(=O)O` [Levodopa], the remaining activity at 1.25 µM in assay [1] (Well no.=2264) was determined as 93.8%. Also, in assay [2] (Well no.=2264), the remaining activity at 3.75 µM is 95.2%.
For the molecule `OC[C@@H](O)CN1CCN(c2ccccc2)CC1` [Levodropropizine], the remaining activity at 1.25 µM in assay [1] (Well no.=6189) was 97.3%. Further, in assay [2] (Well no.=6189), the remaining activity at 3.75 µM was found to be 82.2%.
Take `C[C@H]1COc2c(N3CCN(C)CC3)c(F)cc3c(=O)c(C(=O)O)cn1c23` [Levofloxacin]: the remaining activity at 1.25 µM in assay [1] (Well no.=2266) was 97.9%. Further, in assay [2] (Well no.=2266), the remaining activity at 3.75 µM turned out to be 98.5%.
Regarding `CN1c2c([nH]c(N)nc2=O)NC[C@@H]1CNc1ccc(C(=O)N[C@@H](CCC(=O)O)C(=O)O)cc1` [Levomefolic acid], the remaining activity at 1.25 µM in assay [1] (Well no.=7940) came to 101%. Besides, the remaining activity at 3.75 µM in assay [2] (Well no.=7940) was found to be 101%.
On to `C#C[C@]1(O)CC[C@H]2[C@@H]3CCC4=CC(=O)CC[C@@H]4[C@H]3CC[C@@]21CC` [Levonorgestrel], for which the remaining activity at 1.25 µM in assay [1] (Well no.=2262) came to 93.9%. The remaining activity at 3.75 µM in assay [2] (Well no.=2262) was found to be 102%.
For the molecule `C[C@@H]1CC(=O)NN=C1c1ccc(NN=C(C#N)C#N)cc1` [Levosimendan], the remaining activity at 1.25 µM in assay [1] (Well no.=4902) worked out at 101%. In assay [2] (Well no.=4902), the remaining activity at 3.75 µM was 97.8%.
Turning to `CCN1CCC[C@H]1CNC(=O)c1cc(S(N)(=O)=O)ccc1OC` [Levosulpiride], the remaining activity at 1.25 µM in assay [1] (Well no.=6851) turned out to be 98%. Besides, the remaining activity at 3.75 µM in assay [2] (Well no.=6851) is 88.1%.
For the molecule `CC(=O)CCC(=O)O` [Levulinic acid], the remaining activity at 1.25 µM in assay [1] (Well no.=6545) was found to be 101%. Besides, the remaining activity at 3.75 µM in assay [2] (Well no.=6545) worked out at 98%.
In the case of `CCN(CC)CC(=O)Nc1c(C)cccc1C` [Lidocaine hydrochloride], the remaining activity at 1.25 µM in assay [1] (Well no.=883) is 104%. In assay [2] (Well no.=883), the remaining activity at 3.75 µM was determined as 108%.
